# Assay results as given in US11691969B2, “Pyridazinones as PARP7 inhibtors” (Ribon Therapeutics, Inc., priority 2019, dated 2023).
# Biological target: PARP7 (Homo sapiens (Human), UniProt Q7Z3E1)
# Assay: TR-FRET assay: displacement of biotinylated Probe A from the TIPARP active site (Enzymatic Assay for Inhibition of PARP7)
# Type: binding
# Settings: TIPARP 6 nM, Probe A 2 nM, 25° C.
# Procedure: Example A. Enzymatic Assay for Inhibition of PARP7
# Displacement of Probe A, a biotinylated probe binding to the TIPARP active site, was measured using a time-resolved fluorescence energy transfer (TR-FRET) assay. 20 nL of a dose response curve of each test compound was spotted in black 384-well polystyrene proxiplates (Perkin Elmer) using a Mosquito (TTP Labtech). Reactions were performed in a 8 μl volume by adding 6 μL of TIPARP and Probe A in assay buffer (20 mM HEPES pH=8, 100 mM NaCl, 0.1% bovine serum albumin, 2 mM DTT and 0.002% Tween20), incubating with test compound at 25° C. for 30 min, then adding 2 μL of ULight-anti 6×His and LANCE Eu-W1024 labeled streptavidin (Perkin Elmer). The final concentrations of TIPARP and Probe A were 6 nM and 2 nM, respectively. The final concentration of ULight-anti 6×His and LANCE Eu-W1024 labeled streptavidin were 4 nM and 0.25 nM, respectively. Reactions were incubated at 25° C. for an additional 30 min, then read on an Envision platereader equipped with a LANCE/DELFIA top mirror (Perkin Elmer) using excitation of 320 nm and emission of 615 nm and […] with a […]. The ratio of the 665/615 nm emission were calculated for each well to determine the amount of complex of TIPARP and Probe Ain each well. Control wells containing a negative control of 0.25% DMSO vehicle or a positive control of 100 μM 5-(5-(piperidin-4-yloxy)isoindolin-2-yl)-4-(trifluoromethyl)pyridazin-3(2H)-one were used to calculate the % inhibition as described below:
# [formula] where TRFcmpd is the TR-FRET ratio from the compound treated well, TRFmin is the TR-FRET ratio from the 5-(5-(piperidin-4-yloxy)isoindolin-2-yl)-4-(trifluoromethyl)pyridazin-3(2H)-one—treated positive control well and TRFmax is the TR-FRET ratio from the DMSO-treated negative control well. The % inhibition values were plotted as a function of compound concentration and the following 4-parameter fit was applied to derive the IC50 values:
# [formula] where top and bottom are normally allowed to float, but may be fixed at 100 or 0 respectively in a 3-parameter fit. The Hill Coefficient is normally allowed to float but may also be fixed at 1 in a 3-parameter fit. Y is the % inhibition and X is the compound concentration. Synthesis of Probe A
# PARP7, sequence (Q7Z3E1 whole entry): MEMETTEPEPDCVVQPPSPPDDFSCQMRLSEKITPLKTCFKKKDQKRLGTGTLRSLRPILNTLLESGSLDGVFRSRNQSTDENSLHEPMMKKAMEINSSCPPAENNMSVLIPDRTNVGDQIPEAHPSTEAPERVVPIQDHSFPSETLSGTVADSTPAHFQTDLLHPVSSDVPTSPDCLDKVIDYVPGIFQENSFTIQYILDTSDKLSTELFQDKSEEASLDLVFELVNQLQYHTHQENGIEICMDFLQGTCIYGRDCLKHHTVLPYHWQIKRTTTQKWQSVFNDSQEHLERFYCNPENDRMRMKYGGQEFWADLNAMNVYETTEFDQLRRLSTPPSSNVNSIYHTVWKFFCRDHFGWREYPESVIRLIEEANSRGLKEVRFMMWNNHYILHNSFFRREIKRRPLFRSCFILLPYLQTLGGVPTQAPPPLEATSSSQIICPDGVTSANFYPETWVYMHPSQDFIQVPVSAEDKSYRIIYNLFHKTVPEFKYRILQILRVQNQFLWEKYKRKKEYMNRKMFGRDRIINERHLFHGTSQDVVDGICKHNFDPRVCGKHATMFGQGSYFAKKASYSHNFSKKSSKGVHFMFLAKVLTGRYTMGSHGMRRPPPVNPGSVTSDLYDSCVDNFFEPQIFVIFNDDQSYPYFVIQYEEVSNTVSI
row,SMILES,IC50
1,"C[C@@H](CN[C@H]1CCN(C2CCN(c3ncc(C(F)(F)F)cn3)CC2)C1=O)Nc1cn[nH]c(=O)c1C(F)(F)F (single isomer, unassigned) [Example 26A]",≥ 1000 nM
2,"C[C@H](CN[C@H]1CCN(C2CCN(c3ncc(C(F)(F)F)cn3)CC2)C1=O)Nc1cn[nH]c(=O)c1C(F)(F)F (single isomer, unassigned) [Example 26C]",≥ 1000 nM
3,"C[C@H](CN[C@@H]1CCN(C2CCN(c3ncc(C(F)(F)F)cn3)CC2)C1=O)Nc1cn[nH]c(=O)c1C(F)(F)F (single isomer, unassigned) [Example 26D]",100 to 1000 nM
4,"C[C@@H](COCC(=O)N[C@@H]1CCN(c2ncc(C(F)(F)F)cn2)C[C@H]1O)Nc1cn[nH]c(=O)c1C(F)(F)F (single isomer, unassigned) [Example 33A]",< 100 nM
5,"C[C@@H](COCC(=O)N[C@H]1CCN(c2ncc(C(F)(F)F)cn2)C[C@@H]1O)Nc1cn[nH]c(=O)c1C(F)(F)F (single isomer, unassigned) [Example 33B]",< 100 nM
6,"C[C@@H](CO[C@@H]1CCN([C@@H]2CCN(c3ncc(C(F)(F)F)cn3)C[C@H]2F)C1=O)Nc1cn[nH]c(=O)c1C(F)(F)F (single isomer, unassigned) [Example 38A]",< 100 nM
7,"C[C@@H](CO[C@@H]1CCN([C@H]2CCN(c3ncc(C(F)(F)F)cn3)C[C@@H]2F)C1=O)Nc1cn[nH]c(=O)c1C(F)(F)F (single isomer, unassigned) [Example 38B]",< 100 nM
8,"C[C@@H](CO[C@@H]1CCN([C@@H]2CCN(c3ncc(C(F)(F)F)cn3)C[C@@H]2F)C1=O)Nc1cn[nH]c(=O)c1C(F)(F)F (single isomer, unassigned) [Example 39A]",< 100 nM
9,"C[C@@H](CO[C@@H]1CCN([C@H]2CCN(c3ncc(C(F)(F)F)cn3)C[C@H]2F)C1=O)Nc1cn[nH]c(=O)c1C(F)(F)F (single isomer, unassigned) [Example 39B]",< 100 nM
10,"C[C@@H](CO[C@@H]1CCN([C@@H]2CCN(c3ccc(C#N)cn3)CC2(F)F)C1=O)Nc1cn[nH]c(=O)c1C(F)(F)F (single isomer, unassigned) [Example 40A]",< 100 nM
11,"C[C@@H](CO[C@@H]1CCN([C@H]2CCN(c3ccc(C#N)cn3)CC2(F)F)C1=O)Nc1cn[nH]c(=O)c1C(F)(F)F (single isomer, unassigned) [Example 40B]",< 100 nM
12,"C[C@@H](COCC(=O)NC1CCN(c2ncc(C(F)(F)F)cn2)CC1)Nc1cn[nH]c(=O)c1C(F)(F)F [Example 1, (S)-2-(2-(6-oxo-5-(trifluoromethyl)-1,6-dihydropyridazin-4-ylamino)propoxy)-N-(1-(5-(trifluoromethyl)pyrimidin-2-yl)piperidin-4-yl)acetamide]",< 100 nM
13,"C[C@@H](COCC(=O)N(C)C1CCN(c2ncc(C(F)(F)F)cn2)CC1)Nc1cn[nH]c(=O)c1C(F)(F)F [Example 2, (S)—N-methyl-2-(2-(6-oxo-5-(trifluoromethyl)-1,6-dihydropyridazin-4-ylamino)propoxy)-N-(1-(5-(trifluoromethyl)pyrimidin-2-yl)piperidin-4-yl)acetamide]",< 100 nM
14,"C[C@@H](COCC(=O)N(C)C1CCN(c2ncc(C(F)(F)F)s2)CC1)Nc1cn[nH]c(=O)c1C(F)(F)F [Example 3, (S)—N-methyl-2-(2-((6-oxo-5-(trifluoromethyl)-1,6-dihydropyridazin-4-yl)amino)propoxy)-N-(1-(5-(trifluoromethyl)thiazol-2-yl)piperidin-4-yl)acetamide]",< 100 nM
15,"C[C@@H](COCC(=O)N(C)C1CCN(c2cnc(C(F)(F)F)cn2)CC1)Nc1cn[nH]c(=O)c1C(F)(F)F [Example 4, (S)—N-methyl-2-(2-(6-oxo-5-(trifluoromethyl)-1,6-dihydropyridazin-4-ylamino)propoxy)-N-(1-(5-(trifluoromethyl)pyrazin-2-yl)piperidin-4-yl)acetamide]",< 100 nM
16,"C[C@@H](COCC(=O)N(C)C1CN(c2ncc(C(F)(F)F)cn2)C1)Nc1cn[nH]c(=O)c1C(F)(F)F [Example 5, (S)—N-methyl-2-(2-(6-oxo-5-(trifluoromethyl)-1,6-dihydropyridazin-4-ylamino)propoxy)-N-(1-(5-(trifluoromethyl)pyrimidin-2-yl)azetidin-3-yl)acetamide]",< 100 nM
17,"C[C@@H](COCC(=O)N(C)C1CCN(c2ccc(C#N)cn2)CC1)Nc1cn[nH]c(=O)c1C(F)(F)F [Example 6, (S)—N-(1-(5-cyanopyridin-2-yl)piperidin-4-yl)-N-methyl-2-(2-((6-oxo-5-(trifluoromethyl)-1,6-dihydropyridazin-4-yl)amino)propoxy)acetamide]",< 100 nM
18,"CCN(C(=O)COC[C@H](C)Nc1cn[nH]c(=O)c1C(F)(F)F)C1CCN(c2ncc(C(F)(F)F)cn2)CC1 [Example 7, (S)—N-ethyl-2-(2-((6-oxo-5-(trifluoromethyl)-1,6-dihydropyridazin-4-yl)amino)propoxy)-N-(1-(5-(trifluoromethyl)pyrimidin-2-yl)piperidin-4-yl)acetamide]",< 100 nM
19,"CN(C(=O)COC[C@@H]1CCN1c1cn[nH]c(=O)c1C(F)(F)F)C1CCN(c2ncc(C(F)(F)F)cn2)CC1 [Example 8, (S)—N-methyl-2-((1-(6-oxo-5-(trifluoromethyl)-1,6-dihydropyridazin-4-yl)azetidin-2-yl)methoxy)-N-(1-(5-(trifluoromethyl)pyrimidin-2-yl)piperidin-4-yl)acetamide]",< 100 nM
20,"COC[C@@H](COCC(=O)N(C)C1CCN(c2ncc(C(F)(F)F)cn2)CC1)Nc1cn[nH]c(=O)c1C(F)(F)F [Example 9, (S)-2-(3-methoxy-2-((6-oxo-5-(trifluoromethyl)-1,6-dihydropyridazin-4-yl)amino)propoxy)-N-methyl-N-(1-(5-(trifluoromethyl)pyrimidin-2-yl)piperidin-4-yl)acetamide]",< 100 nM
21,"C[C@@H](CO[C@H]1CCN(C2CCN(c3ncc(C(F)(F)F)cn3)CC2)C1=O)Nc1cn[nH]c(=O)c1C(F)(F)F [Example 10A, 5-((S)-1-((S)-1-(1-(5-(trifluoromethyl)pyrimidin-2-yl)piperidin-4-yl)-2-oxopyrrolidin-3-yloxy)propan-2-ylamino)-4-(trifluoromethyl)pyridazin-3(2H)-one]",100 to 1000 nM
22,"C[C@@H](CO[C@@H]1CCN(C2CCN(c3ncc(C(F)(F)F)cn3)CC2)C1=O)Nc1cn[nH]c(=O)c1C(F)(F)F [Example 10B, 5-((S)-1-((R)-1-(1-(5-(trifluoromethyl)pyrimidin-2-yl)piperidin-4-yl)-2-oxopyrrolidin-3-yloxy)propan-2-ylamino)-4-(trifluoromethyl)pyridazin-3(2H)-one]",< 100 nM
23,"C[C@@H](COC1CCN(C2CCN(c3ncc(C(F)(F)F)cn3)CC2)C1=O)Nc1cn[nH]c(=O)c1Cl (stereo partly drawn) [Example 11, 4-chloro-5-((S)-1-(2-oxo-1-(1-(5-(trifluoromethyl)pyrimidin-2-yl)piperidin-4-yl)pyrrolidin-3-yloxy)propan-2-ylamino)pyridazin-3(2H)-one]",< 100 nM
24,"C[C@@H](COC1CCN(C2CCN(c3cnc(C(F)(F)F)cn3)CC2)C1=O)Nc1cn[nH]c(=O)c1Br (stereo partly drawn) [Example 12, 4-bromo-5-(((2S)-1-((2-oxo-1-(1-(5-(trifluoromethyl)pyrazin-2-yl)piperidin-4-yl)pyrrolidin-3-yl)oxy)propan-2-yl)amino)pyridazin-3(2H)-one]",< 100 nM
